As a reminder, the IC50 is the midpoint of a concentration-inhibition curve.

The target of assay [1] is T1, Protein deacetylase HDAC6 (Homo sapiens, UniProt Q9UBN7).
T1 sequence (Q9UBN7 whole entry): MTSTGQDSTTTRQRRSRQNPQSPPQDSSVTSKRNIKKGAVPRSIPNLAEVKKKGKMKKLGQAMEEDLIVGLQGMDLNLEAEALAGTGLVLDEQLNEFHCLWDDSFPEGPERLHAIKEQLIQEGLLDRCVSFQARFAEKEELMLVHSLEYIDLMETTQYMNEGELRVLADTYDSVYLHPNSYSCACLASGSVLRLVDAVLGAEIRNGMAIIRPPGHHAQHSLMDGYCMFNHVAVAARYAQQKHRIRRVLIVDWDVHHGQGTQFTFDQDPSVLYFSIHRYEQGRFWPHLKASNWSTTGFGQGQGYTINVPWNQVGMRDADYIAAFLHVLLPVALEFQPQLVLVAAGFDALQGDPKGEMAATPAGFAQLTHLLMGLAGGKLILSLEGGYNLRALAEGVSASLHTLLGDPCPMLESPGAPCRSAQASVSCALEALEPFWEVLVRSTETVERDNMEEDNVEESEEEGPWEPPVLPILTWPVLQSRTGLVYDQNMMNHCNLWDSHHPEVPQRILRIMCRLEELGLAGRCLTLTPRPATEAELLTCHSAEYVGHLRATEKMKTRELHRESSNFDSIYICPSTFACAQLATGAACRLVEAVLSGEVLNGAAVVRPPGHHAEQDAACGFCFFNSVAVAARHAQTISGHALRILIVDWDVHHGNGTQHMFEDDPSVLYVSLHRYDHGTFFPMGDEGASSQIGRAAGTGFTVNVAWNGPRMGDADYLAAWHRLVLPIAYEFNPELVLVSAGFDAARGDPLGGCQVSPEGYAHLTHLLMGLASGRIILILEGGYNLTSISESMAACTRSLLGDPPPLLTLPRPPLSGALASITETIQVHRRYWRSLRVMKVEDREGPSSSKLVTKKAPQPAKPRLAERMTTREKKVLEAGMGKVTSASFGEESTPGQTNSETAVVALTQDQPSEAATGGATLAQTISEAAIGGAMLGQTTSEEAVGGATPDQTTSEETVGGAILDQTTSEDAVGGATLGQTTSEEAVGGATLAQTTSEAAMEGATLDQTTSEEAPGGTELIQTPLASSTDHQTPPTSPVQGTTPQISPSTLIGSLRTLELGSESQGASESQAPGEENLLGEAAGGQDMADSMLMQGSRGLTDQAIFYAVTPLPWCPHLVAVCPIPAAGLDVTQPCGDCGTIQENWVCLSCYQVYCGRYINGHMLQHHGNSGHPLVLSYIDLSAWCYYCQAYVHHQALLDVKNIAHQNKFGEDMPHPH
In words: Inhibition of human N-terminal GST-tagged HDAC6 expressed in baculovirus infected insect cells using RHKKAc as substrate.

Assay [2] has as its target T1, Protein deacetylase HDAC6. In words: Inhibition of HDAC6 CD2 domain (unknown origin).
Assay [3] deals with T1, Protein deacetylase HDAC6. In words: Inhibition of recombinant C-terminal FLAG-tagged HDAC6 (unknown origin) using Ac-NH-GGK(Ac)-AMC as substrate measured after 180 mins by fluorescence assay.

Each structure is given as a SMILES string. Non-standard residues stand in square brackets, D forms with d. Residues, ends and D or L forms follow the SMILES beside them. *: point of attachment. 3Amb = NCc1cccc(C(=O)O)c1; 4Amb = NCc1ccc(C(=O)O)cc1; Cbz = O=C(OCc1ccccc1)*; NHOH = ON*

Consider `O=C(NO)c1ccc(CNC(=O)c2cccnc2C(F)(F)F)cc1`, for which the IC50 in assay [1] is 17 nM. In assay [2], `CC1(C)[C@@H]2CC[C@@H](CNCc3ccc(C(=O)NO)cc3)[C@H]1C2` registered an IC50 of 149 nM. Still for that read-out and setting: next, `O=C(CNC(=O)CNC(=O)OCc1ccccc1)NCc1ccc(C(=O)NO)cc1` (Cbz-Gly-Gly-[4Amb]-{NHOH}): 335 nM. Still for that read-out and setting: next, `CC(C)C[C@H](NC(=O)OCc1ccccc1)C(=O)N[C@@H](C)C(=O)NCc1cccc(C(=O)NO)c1` (Cbz-Leu-Ala-[3Amb]-{NHOH}): 8420 nM. In turn, `CC(C)C[C@H](NC(=O)OCc1ccccc1)C(=O)N[C@@H](C)C(=O)NCc1ccc(C(=O)NO)cc1` (Cbz-Leu-Ala-[4Amb]-{NHOH}) came in with a half-maximal inhibitory concentration (IC50) in assay [1] of 314 nM. As for `CN(C)Cc1ccc(S(=O)(=O)n2ccc(/C=C/C(=O)NO)c2)cc1` [RESMINOSTAT], in assay [3], the IC50 was 72 nM.

Values taken from ChEMBL document CHEMBL4321863, “Exploring Structural Determinants of Inhibitor Affinity and Selectivity in Complexes with Histone Deacetylase 6” (J Med Chem, 2020).
